Among the data in ChEMBL document CHEMBL1135272 (Bioorg Med Chem Lett, 2002) are inhibition and IC50 values, retold here.

The structures appear in SMILES notation.

Assay [1] has as its system A549. Put plainly: Inhibition of NFkB (transcription factor) activation in A549 human lung carcinoma cell line at 20 uM. It is filed as functional.
The subject of assay [2] is A549. Put plainly: Compound was tested for its ability to inhibit tumor necrosis factor alpha (TNF alpha) induced apoptosis in A549 human lung carcinoma cell line. Format: functional, cell-based.
The subject of assay [3] is A549. Put plainly: (§1) Compound was tested for its ability to inhibit tumor necrosis factor alpha (TNF alpha) induced apoptosis in A549 human lung carcinoma cell line at 20 uM concentration. It is filed as functional.
Assay [4] has as its system A549. The assay can be described thus: The compound was tested for its ability to inhibit tumor necrosis factor alpha (TNF alpha) induced apoptosis in A549 human lung carcinoma cell line. Format: functional, cell-based.
The test system of assay [5] is A549. Put plainly: Compound was tested for its ability to inhibit tumor necrosis factor alpha (TNF alpha) induced apoptosis in A549 human lung carcinoma cell line; NA=Not assayed. Format: functional, cell-based.
Assay [6] concerns A549. Put plainly: Inhibition of NFkB (transcription factor) activation in A549 human lung carcinoma cell line. Format: functional, cell-based.
Assay [7] has as its system A549. The assay can be described thus: The compound was examined for its ability to block tumor necrosis factor alpha (TNF alpha) induced IL-8 production in A549 human lung carcinoma cell line using an ELISA. It is filed as functional, cell-based.
The subject of assay [8] is A549. The assay is described as §1. It is filed as functional, cell-based.

Regarding `C=CCOC(=O)NC1C2C(=O)CC(c3ccc(O)cc32)C1C(=O)OCC[Si](C)(C)C` (centres undefined), the inhibition (commonly the percentage by which the read-out fell short of the control) at 20 µM in assay [1] is 34%. The IC50 – broadly, the midpoint of a concentration-inhibition curve – in assay [2] is 14 µM.
`C=CCNC(=O)C1C2C(=O)CC(c3ccc(O)cc32)C1C(=O)OCC[Si](C)(C)C` (centres undefined): the inhibition at 20 µM in assay [3] stood at 18%; in assay [1], 19%.
`C[Si](C)(C)CCOC(=O)C1C2CC(=O)C(c3cc(O)ccc32)C1C(=O)OCc1cccc(F)c1` (centres undefined) returned an inhibition at 20 µM in assay [1] of 13%. The molecule further showed an IC50 in assay [4] of 12 µM.
Consider `CCCOC(=O)C1C2C(=O)CC(c3ccc(O)cc32)C1C(=O)OCCC[Si](C)(C)C` (centres undefined), for which the figures for the IC50 result in assay [5] and in assay [6] were “Not Active” and 40 µM, respectively.
`CCCOC(=O)C1C2C(=O)CC(c3ccc(OCC)cc32)C1C(=O)OCC[Si](C)(C)C` (centres undefined) displayed an inhibition at 20 µM in assay [1] of 43%. The molecule further returned a half-inhibitory concentration (IC50) in assay [2] of 10 µM.
Turning to `C[Si](C)(C)CCOC(=O)C1C2CC(=O)C(c3cc(O)ccc32)C1NC(=O)NCc1cccnc1` (centres undefined), the inhibition at 20 µM is 11% in assay [3] and 30% in assay [1].
For the molecule `C=CCOC(=O)C1C2C(=O)CC(c3ccc(O)cc32)C1C(=O)OCC[Si](C)(C)C` (centres undefined), the IC50 is 21 µM in assay [6], 21 µM in assay [7] and 5 µM in assay [4].
As for `C=CCNC(=O)NC1C2C(=O)CC(c3ccc(O)cc32)C1C(=O)OCC[Si](C)(C)C` (centres undefined), the inhibition at 20 µM was 23% in assay [3] and 28% in assay [1].
For `C[Si](C)(C)CCOC(=O)C1C2CC(=O)C(c3cc(O)ccc32)C1C(=O)OCCN1CCOCC1` (centres undefined), in that order: 43% and 18%.
In turn, `CCCOC(=O)C1C2C(=O)CC(c3ccccc32)C1C(=O)OCC[Si](C)(C)C` (centres undefined) returned an inhibition at 20 µM in assay [3] of 38%. In assay [6], this molecule showed an IC50 of 45 µM.
Turning to `CCCOC(=O)C1C2C(=O)CC(c3ccc(OCc4ccccn4)cc32)C1C(=O)OCC[Si](C)(C)C` (centres undefined), the inhibition at 20 µM was found to be 47% in assay [3] and 31% in assay [1].
For `C[Si](C)(C)CCOC(=O)C1C2CC(=O)C(c3cc(O)ccc32)C1NC(=O)OCc1ccc(-c2ccccc2)cc1` (centres undefined), the inhibition at 20 µM in assay [3] is 0%; in assay [1], 27%.
On to `CCCOC(=O)C1C2C(=O)CC(c3ccc(O)cc32)C1C(=O)OCC[Si](C)(C)C` (centres undefined), for which the IC50 in assay [6] was 15 µM; in assay [7], 14 µM; in assay [8], 3 µM.
Consider `CCCOC(=O)C1C2C(=O)CC(c3ccc(OCCc4ccccn4)cc32)C1C(=O)OCC[Si](C)(C)C` (centres undefined), for which the half-maximal inhibitory concentration (IC50) in assay [6] came to 27 µM; in assay [2], 4 µM.
In the case of `CCCOC(=O)C1C2C(=O)CC(c3ccc(O)cc32)C1C(=O)OCCC(C)(C)C` (centres undefined), the IC50 result in assay [5] is “Not Active”; in assay [6], 41 µM.
As to `CCCOC(=O)C1C2C(=O)CC(c3ccc(OCC(=O)O)cc32)C1C(=O)OCC[Si](C)(C)C` (centres undefined), the values for the inhibition at 20 µM in assay [3] and in assay [1] were 13% and 3%, respectively.
